According to the supplement of paper PMC10307832:

Key:
Test in all cases: relative viability (nuclei count vs DMSO), 5 days (fraction); higher = more cells survive
[1] = compound: Cc1nc(Nc2ncc(C(=O)Nc3c(C)cccc3Cl)s2)cc(N2CCN(CCO)CC2)n1 [Dasatinib] + N=C(N)NC(=N)NCCc1ccccc1 [Phenformin] (partner 250 µM)
Summary of the method: (§1)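 Each reported value is a median over duplicate plates. It expresses relative viability: treated-well nuclei count divided by vehicle-well nuclei count. Lung cancer cell lines in 1536-well plates were dosed by pin tool a day after seeding, alone with one drug or with a fixed anchor-drug dose plus five library-drug doses (not always all listed) in √10 steps, and nuclei were counted after 5 days.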

[2] = compound: C1CC1C(=O)NC2=NNC3=C2C=CC(=C3)C4=CC(=CC=C4)C(=O)NC5CC5 [XMD13-2] + Nc1ncn([C@H]2C[C@H](O)[C@@H](CO)O2)c(=O)n1 [Decitabine] (partner 2 µM)
Summary of the method: as §1

[3] = compound: Cc1ccc(C(=O)Nc2cccc(C(F)(F)F)c2)cc1Nc1cncc(C(N)=O)c1 [ALW-II-49-7] + C[C@@H](Oc1cc(-c2cnn(C3CCNCC3)c2)cnc1N)c1c(Cl)ccc(F)c1Cl [Crizotinib] (partner 1 µM)
Summary of the method: as §1

[4] = compound: Cc1ccc(C(=O)Nc2cccc(C(F)(F)F)c2)cc1Nc1cncc(C(N)=O)c1 [ALW-II-49-7] + COc1cccc2cc(-c3nc([C@H]4CC[C@H](C(=O)O)CC4)n4ncnc(N)c34)[nH]c12 [OSI-027] (partner 0.5 µM)
Summary of the method: as §1

Row | Cell Line | relative viability ([1]; first compound 0.005 µM) | relative viability ([1]; first compound 0.01581 µM) | relative viability ([1]; first compound 0.05 µM) | relative viability ([1]; first compound 0.1581 µM) | relative viability ([1]; first compound 0.5 µM) | relative viability ([2]; first compound 0.05 µM) | relative viability ([2]; first compound 0.1581 µM) | relative viability ([2]; first compound 0.5 µM) | relative viability ([2]; first compound 1.581 µM) | relative viability ([2]; first compound 5 µM) | relative viability ([3]; first compound 0.08 µM) | relative viability ([3]; first compound 0.253 µM) | relative viability ([3]; first compound 0.8 µM) | relative viability ([3]; first compound 2.53 µM) | relative viability ([3]; first compound 8 µM) | relative viability ([4]; first compound 0.08 µM) | relative viability ([4]; first compound 0.253 µM) | relative viability ([4]; first compound 0.8 µM) | relative viability ([4]; first compound 2.53 µM) | relative viability ([4]; first compound 8 µM)
1 | NCI-H727 | 0.399 | 0.461 | 0.375 | 0.262 | 0.235 | 1.02 | 0.783 | 0.914 | 0.841 | 1 | 0.739 | 0.874 | 0.847 | 0.804 | 0.885 | 0.688 | 0.611 | 0.429 | 0.527 | 0.511
2 | NCI-H358 | 0.301 | 0.247 | 0.264 | 0.156 | 0.157 | 0.248 | 0.212 | 0.22 | 0.216 | 0.18 | 0.616 | 0.412 | 0.486 | 0.435 | 0.539 | 0.722 | 0.788 | 0.628 | 0.756 | 0.611
3 | NCI-H1437 | 0.322 | 0.207 | 0.261 | 0.222 | 0.148 | 0.604 | 0.569 | 0.541 | 0.55 | 0.578 | 0.897 | 0.865 | – | 0.869 | 0.896 | 0.835 | 0.744 | 0.751 | 0.877 | 0.75
4 | NCI-H441 | 0.921 | 0.912 | 0.862 | 0.547 | 0.401 | 0.23 | 0.248 | 0.237 | 0.231 | 0.242 | 0.772 | 0.714 | 0.676 | 0.598 | 0.625 | 0.657 | 0.57 | 0.867 | 0.48 | 0.466
5 | EMC-BAC-2 | 0.476 | 0.326 | 0.429 | 0.224 | 0.172 | 1.09 | 0.967 | 0.997 | – | 0.878 | 0.677 | 0.728 | 0.737 | 0.588 | 0.509 | 0.351 | 0.39 | 0.336 | 0.296 | 0.305
6 | NCI-H647 | 0.465 | 0.366 | 0.257 | 0.197 | 0.141 | 0.398 | 0.329 | 0.471 | 0.392 | 0.326 | 1.07 | 1.4 | 1.28 | 0.776 | 0.67 | 0.665 | 0.736 | 0.495 | 0.434 | 0.619
7 | CAL-12T | 0.574 | 0.554 | 0.411 | 0.273 | 0.174 | – | – | – | – | – | 0.537 | 0.625 | 0.686 | 0.62 | 0.385 | 0.734 | 0.745 | 0.612 | 0.759 | 0.503
8 | NCI-H1792 | 0.198 | 0.394 | 0.415 | 0.135 | 0.0671 | 0.625 | 0.507 | 0.581 | 0.551 | 0.48 | 0.795 | 0.866 | 0.819 | 0.827 | 0.878 | 0.805 | 0.774 | 0.609 | 0.149 | 0.376
9 | H3255 | 0.312 | 0.344 | 0.341 | 0.322 | 0.274 | 0.749 | 0.72 | 0.532 | – | 0.603 | 0.945 | 0.993 | 0.81 | 0.696 | 0.564 | 0.556 | 0.58 | 0.559 | 0.483 | 0.388
10 | HCC-78 | 0.436 | 0.581 | 0.581 | 0.465 | 0.245 | 0.691 | 0.737 | 0.664 | 0.613 | 0.61 | 0.335 | 0.321 | 0.32 | 0.297 | 0.371 | 0.34 | 0.394 | – | 0.36 | 0.395
11 | EBC-1 | – | – | – | – | – | – | – | – | – | – | 0.176 | 0.177 | 0.203 | 0.171 | 0.182 | – | – | – | – | –
12 | NCI-H2405 | 0.363 | 0.301 | 0.258 | 0.153 | 0.137 | 0.796 | 0.731 | 0.73 | – | 0.673 | 0.928 | 0.806 | 0.832 | 0.826 | 0.68 | 0.634 | 0.643 | 0.583 | 0.558 | 0.609
13 | A549 | 0.207 | 0.165 | 0.175 | 0.137 | 0.0717 | 0.307 | 0.233 | 0.289 | 0.247 | 0.24 | 0.753 | 0.852 | 0.596 | 0.754 | 0.624 | – | – | – | – | –
14 | NCI-H3122 | 0.36 | 0.364 | 0.363 | 0.326 | 0.295 | 0.403 | 0.439 | 0.414 | 0.372 | 0.395 | 0.309 | 0.272 | 0.271 | 0.331 | 0.307 | 0.905 | 0.254 | 1.05 | – | 1.09
15 | NCI-H1563 | 0.67 | 0.573 | 0.595 | 0.636 | 0.517 | – | – | – | – | – | 0.927 | 0.842 | 0.858 | 0.774 | 0.867 | 0.717 | 0.71 | 0.731 | 0.782 | 0.679
16 | HCC-44 | 0.202 | 0.283 | 0.179 | 0.139 | 0.113 | 0.981 | 0.835 | 1.01 | 0.992 | 0.963 | 0.902 | 0.773 | 0.729 | 0.823 | 0.782 | – | 0.743 | 0.325 | 0.533 | 0.414
17 | PC-3 [JPC-3] | 0.482 | 0.458 | 0.453 | 0.473 | 0.305 | 0.794 | 0.892 | 0.851 | – | 0.842 | 0.854 | 0.979 | 1.05 | 1.06 | 1.01 | 0.655 | 0.733 | 0.805 | 0.688 | 0.63
18 | NCI-H1993 | 0.416 | 0.487 | 0.473 | 0.525 | 0.554 | 0.625 | 0.552 | 0.663 | 0.632 | 0.669 | 0.744 | 1.01 | 0.884 | 1.06 | 1.06 | 0.486 | 0.521 | 0.535 | 0.601 | 0.521
